According to patent US10781189B2, “1,2,4-Oxadiazole and thiadiazole compounds as immunomodulators” (Aurigene Discovery Technologies Limited, priority 2015, dated 2020):

biological target: T1, Recombinant mouse PD-L1 (Mus musculus, UniProt Q9EP73); experiment: Rescue of mouse splenocyte proliferation in the presence of recombinant PD-L1 (CFSE proliferation assay); type: cell-based; conditions: 100 nM compound; CFSE-labelled C57 BL6 mouse splenocytes + anti-CD3/CD28 + PD-L1 (100 ng/mL), 72 h; normalised to stimulated splenocytes as 100%; read-out: Percent rescue of splenocyte proliferation (@100 nM)
T1 construct: Fc (Fc chimera); purchased R&D Systems 1019-B7-100
T1 sequence (Q9EP73 with tags, fused parts or gaps limits assumed): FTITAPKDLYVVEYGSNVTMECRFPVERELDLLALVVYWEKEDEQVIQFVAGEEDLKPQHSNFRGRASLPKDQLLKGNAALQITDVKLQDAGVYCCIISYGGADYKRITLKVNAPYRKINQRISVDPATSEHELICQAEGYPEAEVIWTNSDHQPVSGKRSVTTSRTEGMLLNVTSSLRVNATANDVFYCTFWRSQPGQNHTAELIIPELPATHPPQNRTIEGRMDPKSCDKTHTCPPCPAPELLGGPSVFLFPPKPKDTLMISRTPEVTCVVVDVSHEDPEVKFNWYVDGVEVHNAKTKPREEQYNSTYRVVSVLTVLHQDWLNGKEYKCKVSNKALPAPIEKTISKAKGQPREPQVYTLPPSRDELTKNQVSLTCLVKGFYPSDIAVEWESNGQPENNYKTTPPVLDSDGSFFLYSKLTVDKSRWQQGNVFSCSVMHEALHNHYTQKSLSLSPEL
Method: Example 15: Rescue of Mouse Splenocyte Proliferation in the Presence of Recombinant PD-L1
Recombinant mouse PD-L1 (rm-PDL-1, cat no: 1019-B7-100; R&D Systems) were used as the source of PD-L1.
Mouse splenocytes harvested from 6-8 weeks old C57 BL6 mice; RPMI 1640 (GIBCO, Cat #11875); DMEM with high glucose (GIBCO, Cat # D6429); Fetal Bovine Serum [Hyclone, Cat # SH30071.03]; Penicillin (10000 unit/mL)-Streptomycin (10,000 μg/mL) Liquid (GIBCO, Cat #15140-122); MEM Sodium Pyruvate solution 100 mM (100×), Liquid (GIBCO, Cat #11360); Nonessential amino acid (GIBCO, Cat #11140); L-Glutamine (GIBCO, Cat #25030); Anti-CD3 antibody (eBiosciences—16-0032); Anti-CD28 antibody (eBiosciences—16-0281); ACK lysis buffer (1 mL) (GIBCO, Cat #-A10492); Histopaque (density-1.083 gm/mL) (SIGMA 10831); Trypan blue solution (SIGMA-T8154); 2 mL Norm Ject Luer Lock syringe-(Sigma 2014-12); 40 μm nylon cell strainer (BD FALCON 35230); Hemacytometer (Bright line-SIGMA Z359629); FACS Buffer (PBS/0.1% BSA): Phosphate Buffered Saline (PBS) pH 7.2 (HiMedia TS1006) with 0.1% Bovine Serum Albumin (BSA) (SIGMA A7050) and sodium azide (SIGMA 08591); 5 mM stock solution of CFSE: CFSE stock solution was prepared by diluting lyophilized CFSE with 180 μL of Dimethyl sulfoxide (DMSO C2H6SO, SIGMA-D-5879) and aliquoted in to tubes for further use. Working concentrations were titrated from 10 μM to 1 μM. (eBioscience—650850-85); 0.05% Trypsin and 0.02% EDTA (SIGMA 59417C); 96-well format ELISA plates (Corning CLS3390); BD FACS caliber (E6016); Recombinant mouse B7-H1/PDL1 Fc Chimera, (rm-PD-L1 cat no: 1019-B7-100).
Splenocytes harvested in a 50 mL falcon tube by mashing mouse spleen in a 40 μm cell strainer were further treated with 1 mL ACK lysis buffer for 5 min at room temperature. After washing with 9 mL of RPMI complete media, cells were re-suspended in 3 mL of 1×PBS in a 15 mL tube. 3 mL of Histopaque was added carefully to the bottom of the tube without disturbing overlaying splenocyte suspension. After centrifuging at 800×g for 20 min at room temperature, the opaque layer of splenocytes was collected carefully without disturbing/mixing the layers. Splenocytes were washed twice with cold 1×PBS followed by total cell counting using Trypan Blue exclusion method and used further for cell based assays.
Splenocytes were cultured in RPMI complete media (RPMI+10% fetal bovine serum+1 mM sodium pyruvate+10,000 units/mL penicillin and […] streptomycin) and maintained in a CO2 incubator with 5% CO2 at 37° C.
CFSE is a dye that passively diffuses into cells and binds to intracellular proteins. 1×10^6 cells/mL of harvested splenocytes were treated with 5 μM of CFSE in pre-warmed 1×PBS/0.1% BSA solution for 10 min at 37° C. Excess CFSE was quenched using 5 volumes of ice-cold culture media to the cells and incubated on ice for 5 min. CFSE labelled splenocytes were further given three washes with ice cold complete RPMI media. CFSE labelled 1×10^5 splenocytes added to wells containing either MDA-MB231 cells (1×10^5 cells cultured in high glucose DMEM medium) or recombinant human PDL-1 (100 ng/mL) and test compounds. Splenocytes were stimulated with anti-mouse CD3 and anti-mouse CD28 antibody (1 μg/mL each) and the culture was further incubated for 72 h at 37° C. with 5% CO2. Cells were harvested and washed thrice with ice cold FACS buffer and % proliferation was analysed by flow cytometry with 488 nm excitation and 521 nm emission filters.
Percent splenocyte proliferation was analysed using cell quest FACS program and percent rescue of splenocyte proliferation by compound was estimated after deduction of % background proliferation value and normalising to % stimulated splenocyte proliferation (positive control) as 100%.
Stimulated splenocytes: Splenocytes+anti-CD3/CD28 stimulation
Background proliferation: Splenocytes+anti-CD3/CD28+PD-L1
Compound proliferation: Splenocytes+anti-CD3/CD28+PD-L1+Compound […]

SMILES | activation at 0.1 µM
C[C@@H](O)[C@H](NC(=O)N[C@@H](CC(N)=O)c1nc([C@@H](N)Cc2c[nH]c3ccccc23)no1)C(=O)O (stereo in doubt) [Compound 41] | 78%
CCN(Cc1ccccc1)C(=O)N[C@@H](CC(N)=O)c1nc([C@@H](N)CO)no1 (stereo in doubt) [Compound 94] | 97%
C[C@H](NC(=O)N[C@@H](C)c1nc([C@H](C)N)no1)C(=O)O [Compound 1] | 76%
CC(O)[C@H](NC(=O)N[C@@H](CC(N)=O)c1nc([C@@H](N)CCC(=O)O)no1)C(=O)O (some centres unmarked) [Compound 2] | 68%
CCC(C)[C@H](NC(=O)N[C@@H](CC(N)=O)c1nc([C@@H](N)CO)no1)C(=O)O (some centres unmarked) [Compound 3] | 73%
NC(=O)C[C@H](NC(=O)N[C@@H](CCC(=O)O)C(=O)O)c1nc([C@@H](N)CO)no1 [Compound 4] | 44%
NCCCC[C@H](NC(=O)N[C@@H](CC(N)=O)c1nc([C@@H](N)CO)no1)C(=O)O [Compound 5] | 38%
CC(O)[C@H](NC(=O)N1CCC[C@H]1c1nc([C@@H](N)CO)no1)C(=O)O (some centres unmarked) [Compound 6] | 69%
N[C@@H](Cc1ccc(O)cc1)c1noc([C@@H]2CCCN2C(=O)N[C@@H](Cc2ccc(O)cc2)C(=O)O)n1 [Compound 7] | 91%
CC(O)[C@H](NC(=O)N[C@@H](CC(N)=O)c1nc([C@@H](N)CCCCN)no1)C(=O)O (some centres unmarked) [Compound 8] | 48%
CCC(C)[C@H](N)c1noc([C@H](CC(N)=O)NC(=O)N[C@H](C(=O)O)C(C)O)n1 (some centres unmarked) [Compound 9] | 84%
CCC(C)[C@H](NC(=O)N[C@@H](CCC(=O)O)C(=O)O)c1nc([C@@H](N)CCC(N)=O)no1 (some centres unmarked) [Compound 10] | 84%
CC(O)[C@H](NC(=O)N[C@@H](CCCCN)c1nc([C@@H](N)CO)no1)C(=O)O (some centres unmarked) [Compound 11] | 66%
CC(O)[C@H](NC(=O)N[C@@H](CC(N)=O)c1nc([C@@H](N)Cc2ccccc2)no1)C(=O)O (some centres unmarked) [Compound 13] | 62%
CC(O)[C@H](NC(=O)N[C@@H](Cc1ccccc1)c1nc([C@@H](N)CO)no1)C(=O)O (some centres unmarked) [Compound 14] | 92%
CC(O)[C@H](NC(=O)N[C@@H](CC(N)=O)c1nc([C@H](C)N)no1)C(=O)O (some centres unmarked) [Compound 15] | 28%
CCC(C)[C@H](NC(=O)N[C@H](C(=O)O)C(C)O)c1nc([C@@H](N)CO)no1 (some centres unmarked) [Compound 16] | 50%
CC(O)[C@H](NC(=O)N[C@@H](C)c1nc([C@@H](N)CO)no1)C(=O)O (some centres unmarked) [Compound 17] | 58%
C[C@H](NC(=O)N[C@@H](CC(N)=O)c1nc([C@@H](N)CO)no1)C(=O)O [Compound 18] | 57%
N[C@@H](Cc1ccc(O)cc1)c1noc([C@@H]2C(O)CCN2C(=O)N[C@@H](Cc2ccc(O)cc2)C(=O)O)n1 (some centres unmarked) [Compound 19] | 54%
N[C@@H](Cc1ccc(O)cc1)c1noc([C@@H]2CCCCN2C(=O)N[C@@H](Cc2ccc(O)cc2)C(=O)O)n1 [Compound 20] | 51%
CC(O)[C@H](NC(=O)N1CCC[C@H]1c1nc([C@@H](N)Cc2ccc(O)cc2)no1)C(=O)O (some centres unmarked) [Compound 21] | 51%
N[C@@H](CC(=O)O)c1noc([C@@H]2CCCN2C(=O)N[C@@H](CC(=O)O)C(=O)O)n1 [Compound 23] | 49%
N[C@@H](CCC(=O)O)c1noc([C@@H]2CCCN2C(=O)N[C@@H](CC(=O)O)C(=O)O)n1 [Compound 24] | 17%

SMILES | activation at 0.1 µM
CC(=O)NCCCC[C@H](NC(=O)N[C@H](C(=O)O)C(C)O)c1nc([C@@H](N)CO)no1 (some centres unmarked) [Compound 27] | 37%
NC(=O)CC[C@H](NC(=O)N[C@@H](CC(N)=O)c1nc([C@@H](N)CO)no1)C(=O)O [Compound 28] | 36%
N=C(N)NCCC[C@H](N)c1noc([C@H](CC(=O)O)NC(=O)N[C@@H](CO)C(=O)O)n1 [Compound 30] | 65%
NCCCC[C@H](N)c1noc([C@H](CC(N)=O)NC(=O)N[C@@H](CO)C(=O)O)n1 [Compound 31] | 42%
CC(O)[C@H](NC(=O)N[C@@H](CC(=O)O)c1nc([C@@H](N)CCCNC(=N)N)no1)C(=O)O (some centres unmarked) [Compound 32] | 70%
CC(O)[C@H](NC(=O)N[C@@H](CCC(N)=O)c1nc([C@@H](N)CCCNC(=N)N)no1)C(=O)O (some centres unmarked) [Compound 33] | 60%
CC(O)[C@H](NC(=O)N[C@@H](CC(=O)O)c1nc([C@@H](N)Cc2cnc[nH]2)no1)C(=O)O (some centres unmarked) [Compound 34] | 59%
NCCCC[C@H](NC(=O)N[C@@H](CC(=O)O)c1nc([C@@H](N)Cc2cnc[nH]2)no1)C(=O)O [Compound 35] | 66%
NCCCC[C@H](N)c1noc([C@H](CCC(N)=O)NC(=O)N[C@@H](CO)C(=O)O)n1 [Compound 36] | 68%
NCCCC[C@H](N)c1noc([C@H](CCC(=O)O)NC(=O)N[C@@H](CO)C(=O)O)n1 [Compound 37] | 60%
CC(O)[C@H](NC(=O)N[C@@H](CCC(=O)O)c1nc([C@@H](N)CCCCN)no1)C(=O)O (some centres unmarked) [Compound 38] | 52%
NC(=O)C[C@H](NC(=O)N[C@@H](Cc1ccccc1)C(=O)O)c1nc([C@@H](N)CO)no1 [Compound 39] | 75%
CC(O)[C@H](NC(=O)N[C@@H](CC(N)=O)c1nc([C@@H](N)C(C)C)no1)C(=O)O (some centres unmarked) [Compound 40] | 67%
CC(O)[C@H](NC(=O)N[C@@H](CC(N)=O)c1nc([C@@H](N)Cc2ccc(O)cc2)no1)C(=O)O (some centres unmarked) [Compound 42] | 50%
CC(O)[C@H](NC(=O)N[C@@H](Cc1c[nH]c2ccccc12)c1nc([C@@H](N)CO)no1)C(=O)O (some centres unmarked) [Compound 43] | 60%
CC(O)[C@H](NC(=O)N[C@H](c1nc([C@@H](N)CO)no1)C(C)C)C(=O)O (some centres unmarked) [Compound 44] | 71%
CC(C)[C@H](NC(=O)N[C@@H](CC(N)=O)c1nc([C@@H](N)CCCCN)no1)C(=O)O [Compound 45] | 17%
CSCC[C@H](N)c1noc([C@H](CC(N)=O)NC(=O)N[C@@H](CC(=O)O)C(=O)O)n1 [Compound 46] | 53%
N[C@@H](CO)c1noc([C@H](CO)NC(=O)N[C@@H](CO)C(=O)O)n1 [Compound 47] | 49%
CC(O)[C@H](NC(=O)N[C@@H](CC(N)=O)c1nc([C@@H](N)CO)no1)C(=O)Nc1ccc2c(c1)OCCO2 (some centres unmarked) [Compound 51] | 20%
CCC(C)[C@H](N)c1noc([C@@H](NC(=O)N[C@H](C(=O)O)C(C)O)C(C)CC)n1 (some centres unmarked) [Compound 52] | 71%
NC(=O)C[C@H](NC(=O)N[C@@H](CC(N)=O)c1nc([C@@H](N)CC(N)=O)no1)C(=O)O [Compound 56] | 26%
CC(O)[C@H](N)c1noc([C@H](Cc2ccc(O)cc2)NC(=O)N2CCC[C@H]2C(=O)O)n1 (some centres unmarked) [Compound 60] | 99%
